This is an account of results in US12565494B2, “Inhibitors of human respiratory syncytial virus and metapneumovirus” (priority 2022, dated 2026).

As a reminder, the EC50 is the midpoint of the concentration-response curve.

Assay [1] relates to RSV-A2-GFP virus. The assay can be described thus: microbe, parasite or virus in culture. The format is cell-based, Human Respiratory Syncytial Virus. The following applies: Calu-1 cells, RSV-A2-GFP MOI=1.2, 96 hrs, GFP-expressing cells counted. The gist of the method:
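Assay-ready frozen Calu-1 cells (20,000 cells/mL) were infected with RSV-A2-GFP at MOI 1.2 in DMEM with 2% FBS and exposed to a 10-point 3-fold compound dilution for 96 h at 37 °C. GFP-positive cells were counted by imaging, with same-well CellTiter-Glo for cytotoxicity. IC50 and CC50 came from 4-parameter logistic fits.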

Assay [2] has as its system hMPV-GFP virus. The assay can be described thus: microbe, parasite or virus in culture. It is filed as cell-based, Human Metapneumovirus. The following applies: VERO cells, hMPV-GFP MOI=1.25, 48 hrs, GFP-expressing cells counted. The method, boiled down:
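VERO cells infected with GFP-expressing hMPV at MOI 1.25 and exposed to compound in 10-point 3-fold dilutions (typical final 40,300–2 nM) for 48 h at 37 °C. GFP-positive cells counted by imaging; same-well CellTiter-Glo for cytotoxicity. IC50 and CC50 from 4-parameter logistic fits.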

[3] abbreviates: Table I Summary of Activities for RSV, read-out: RSV EC50.
[4] abbreviates: Table II Summary of Activities for hMPV, read-out: RSV EC50.
[5] abbreviates: human respiratory syncytial virus, Calu-1, 96 h, read-out: RSV EC50, Table I Summary of Activities for RSV.
Setting [6] is: Vero, 48 h, read-out: RSV EC50, Table II Summary of Activities for hMPV.
The mark [7] stands for this setting: read-out: RSV EC50, Table I Summary of Activities for RSV.
Setting [8] is: read-out: RSV EC50, Table II Summary of Activities for hMPV.

The structures appear in SMILES notation. Where two headings read alike, the source gives them in different places. A value given as a limit tells only on which side of the number the result lay.

Regarding `Cc1cnc(-c2cc(C(=O)N3C[C@@H]4[C@H](C3)[C@H]4Oc3cc(C(C)(C)N)cc(-c4ccc(F)cc4)n3)n(C)n2)o1` [Example 22, ((1R,5S,6s)-6-((4-(2-aminopropan-2-yl)-6-(4-fluorophenyl)pyridin-2-yl)oxy)-3-azabicyclo[3.1.0]hexan-3-yl)(1-methyl-3-(5-methyloxazol-2-yl)-1H-pyrazol-5-yl)methanone], the EC50 in assay [1] (setting [3]) is under 0.01 µM; in assay [2] (setting [4]), 0.01 to 0.1 µM.
Take `Cn1nc(-c2ncco2)cc1C(=O)N1C[C@@H]2[C@H](C1)[C@H]2Oc1cc(-c2ccc(F)cc2)cc(C(C)(C)N)n1` [Example 60, ((1R,5S,6s)-6-((6-(2-aminopropan-2-yl)-4-(4-fluorophenyl)pyridin-2-yl)oxy)-3-azabicyclo[3.1.0]hexan-3-yl)(1-methyl-3-(oxazol-2-yl)-1H-pyrazol-5-yl)methanone]: the EC50 in assay [1] (setting [3]) was under 0.01 µM; in assay [2] (setting [4]), over 0.1 µM.
For `Cc1nc(-c2cc(C(=O)N3C[C@@H]4[C@H](C3)[C@H]4Oc3cc(C(C)(C)N)cc(-c4ccc(F)cc4)n3)n(C)n2)cs1` [Example 24, ((1R,5S,6s)-6-((4-(2-aminopropan-2-yl)-6-(4-fluorophenyl)pyridin-2-yl)oxy)-3-azabicyclo[3.1.0]hexan-3-yl)(1-methyl-3-(2-methylthiazol-4-yl)-1H-pyrazol-5-yl)methanone], in that order: under 0.01 µM and over 0.1 µM.
Regarding `CC(N)c1cc(O[C@H]2[C@@H]3CN(C(=O)c4cc(-c5ccon5)nn4C)C[C@@H]32)nc(-c2ccc(F)cc2)c1` (single isomer, unassigned; enantiomer 1) [Example 62A], the values for the EC50 in assay [1] (setting [5]) and in assay [2] (setting [6]) were under 0.01 µM and over 0.1 µM, respectively.
`CC(C)(N)c1cc(O[C@H]2[C@@H]3CN(C(=O)c4sc(-c5cscn5)nc4C(F)F)C[C@@H]32)nc(-c2ccc(F)cc2)c1` [Example 14]: the results for the concentration giving a half-maximal response (EC50) in assay [1] (setting [5]) and in assay [2] (setting [6]) were under 0.01 µM and over 0.1 µM, respectively.
For `Cn1nc(-c2cscn2)cc1C(=O)N1C[C@@H]2[C@H]1C[C@H]2Oc1cc(C(C)(C)N)cc(-c2ccc(F)cc2)n1` (single isomer, unassigned; enantiomer 2) [Example 1], in that order: under 0.01 µM and over 0.1 µM.
For `Cn1nc(-n2cccn2)cc1C(=O)N1C[C@@H]2[C@H](C1)[C@H]2Oc1cc(C(C)(C)N)cc(-c2ccc(F)cc2)n1` [Example 67, ((1R,5S,6s)-6-((4-(2-aminopropan-2-yl)-6-(4-fluorophenyl)pyridin-2-yl)oxy)-3-azabicyclo[3.1.0]hexan-3-yl)(1′-methyl-1′H-[1,3′-bipyrazol]-5′-yl)methanone], in that order: under 0.01 µM and over 0.1 µM.
For `Cn1nc(-c2ccon2)cc1C(=O)N1C[C@H]2[C@H](Oc3cc(C(C)(C)N)cc(-c4ccc(F)cc4)n3)[C@@]2(C)C1` (single isomer, unassigned; enantiomer 2) [Example 45B], the EC50 was under 0.01 µM in assay [1] (setting [7]) and over 0.1 µM in assay [2] (setting [8]).
For `Cc1nc(-c2ncco2)sc1C(=O)N1C[C@@H]2[C@H](C1)[C@H]2Oc1cc(C(C)(C)N)cc(-n2cc(C3CC3)cn2)n1` [Example 37, ((1R,5S,6s)-6-((4-(2-aminopropan-2-yl)-6-(4-cyclopropyl-1H-pyrazol-1-yl)pyridin-2-yl)oxy)-3-azabicyclo[3.1.0]hexan-3-yl)(4-methyl-2-(oxazol-2-yl)thiazol-5-yl)methanone], the figures for the concentration giving a half-maximal response (EC50) in assay [1] (setting [3]) and in assay [2] (setting [4]) were under 0.01 µM and over 0.1 µM, respectively.
With `Cn1nc(-c2cscn2)cc1C(=O)N1C[C@@H]2[C@H](C1)[C@H]2Oc1cc(C(C)(N)CO)cc(-c2ccc(F)cc2)n1` (single isomer, unassigned; enantiomer 1) [Example 57A], the EC50 is under 0.01 µM in assay [1] (setting [5]) and over 0.1 µM in assay [2] (setting [6]).
In the same order, the values of `Cn1nc(-c2cscn2)cc1C(=O)N1C[C@@H]2[C@H](C1)[C@H]2Oc1cc(C(C)(N)C(N)=O)cc(-c2ccc(F)cc2)n1` (single isomer, unassigned; ent-2) [Example 49A] are under 0.01 µM and over 0.1 µM.
For `Cn1nc(-c2cscn2)cc1C(=O)N1C[C@@H]2[C@H](C1)[C@H]2Oc1cc(C(C)(C)CN)cc(-c2ccc(F)cc2)n1` [Example 54, ((1R,5S,6s)-6-((4-(1-amino-2-methylpropan-2-yl)-6-(4-fluorophenyl)pyridin-2-yl)oxy)-3-azabicyclo[3.1.0]hexan-3-yl)(1-methyl-3-(thiazol-4-yl)-1H-pyrazol-5-yl)methanone], in that order: under 0.01 µM and 0.01 to 0.1 µM.
With `CC(N)c1cc(O[C@H]2[C@@H]3CN(C(=O)c4cc(-c5ccon5)nn4C)C[C@@H]32)nc(-c2ccc(F)cc2)c1` (single isomer, unassigned; enantiomer 2) [Example 62B], the figures for the EC50 in assay [1] (setting [7]) and in assay [2] (setting [8]) were under 0.01 µM and over 0.1 µM, respectively.
As to `Cc1nc(-c2ncc[nH]2)sc1C(=O)N1C[C@@H]2[C@H](C1)[C@H]2Oc1cc(C(C)(C)N)cc(-c2ccc(F)cc2)n1` [Example 9, (2-(1H-imidazol-2-yl)-4-methylthiazol-5-yl)((1R,5S,6s)-6-((4-(2-aminopropan-2-yl)-6-(4-fluorophenyl)pyridin-2-yl)oxy)-3-azabicyclo[3.1.0]hexan-3-yl)methanone], the EC50 in assay [1] (setting [3]) was under 0.01 µM; in assay [2] (setting [4]) it was over 0.1 µM.
In the same order, the values of `Cn1nc(-c2nccs2)cc1C(=O)N1C[C@@H]2[C@H](C1)[C@H]2Oc1cc(C(C)(C)N)cc(-c2ccc(F)cc2)n1` [Example 23, ((1R,5S,6s)-6-((4-(2-aminopropan-2-yl)-6-(4-fluorophenyl)pyridin-2-yl)oxy)-3-azabicyclo[3.1.0]hexan-3-yl)(1-methyl-3-(thiazol-2-yl)-1H-pyrazol-5-yl)methanone] are under 0.01 µM and over 0.1 µM.
In the case of `Cn1nc(-c2cscn2)cc1C(=O)N1C[C@@H]2[C@H](C1)[C@H]2Oc1cc(C2(C)CCNC2=O)cc(-c2ccc(F)cc2)n1` (single isomer, unassigned; ent-3) [Example 51B], the EC50 in assay [1] (setting [7]) was under 0.01 µM; in assay [2] (setting [8]) it was over 0.1 µM.
Turning to `Cn1nc(-c2cscn2)cc1C(=O)N1C[C@H]2[C@H](Oc3cc(C(C)(C)N)cc(-c4ccc(F)cc4)n3)[C@@]2(C)C1` (single isomer, unassigned; enantiomer 2) [Example 43B], the EC50 is under 0.01 µM in assay [1] (setting [5]) and over 0.1 µM in assay [2] (setting [6]).
As to `Cn1nc(-c2ncco2)c(F)c1C(=O)N1C[C@@H]2[C@H](C1)[C@H]2Oc1cc(C(C)(C)N)cc(-c2ccc(F)cc2)n1` [Example 26, ((1R,5S,6s)-6-((4-(2-aminopropan-2-yl)-6-(4-fluorophenyl)pyridin-2-yl)oxy)-3-azabicyclo[3.1.0]hexan-3-yl)(4-fluoro-1-methyl-3-(oxazol-2-yl)-1H-pyrazol-5-yl)methanone], the half-maximal effective concentration (EC50) is under 0.01 µM in assay [1] (setting [3]) and over 0.1 µM in assay [2] (setting [4]).
As for `Cn1nc(-c2cscn2)cc1C(=O)N1C[C@H]2[C@H](Oc3cc(C(C)(C)N)cc(-c4ccc(F)cc4)n3)[C@@]2(C)C1` (single isomer, unassigned; enantiomer 1) [Example 43A], the 50% effective concentration (EC50) in assay [1] (setting [5]) is under 0.01 µM; in assay [2] (setting [6]), 0.01 to 0.1 µM.
On to `Cn1nc(-c2ncco2)cc1C(=O)N1C[C@@H]2C(Oc3cc(C(C)(N)CO)cc(-c4ccc(F)cc4)n3)[C@@H]2C1` (single isomer, unassigned; enantiomer 2) [Example 58B], for which the EC50 in assay [1] (setting [3]) is under 0.01 µM; in assay [2] (setting [4]) it was over 0.1 µM.
Consider `Cn1nc(-c2ncco2)cc1C(=O)N1C[C@H]2[C@H](Oc3cc(C(C)(C)N)cc(-c4ccc(F)cc4)n3)[C@@]2(C)C1` (single isomer, unassigned; enantiomer 1) [Example 44A], for which the EC50 in assay [1] (setting [5]) is under 0.01 µM; in assay [2] (setting [6]), 0.01 to 0.1 µM.
Take `Cn1nc(-c2ncco2)cc1C(=O)N1C[C@H]2[C@H](Oc3cc(C(C)(C)N)cc(-c4ccc(F)cc4)n3)[C@@]2(C)C1` (single isomer, unassigned; enantiomer 2) [Example 44B]: the figures for the EC50 in assay [1] (setting [7]) and in assay [2] (setting [8]) were under 0.01 µM and 0.01 to 0.1 µM, respectively.
In the same order, the values of `Cn1nc(-c2cscn2)cc1C(=O)N1C[C@@H]2[C@H](C1)[C@H]2Oc1cc(C2(C)CCCN2)cc(-c2ccc(F)cc2)n1` (single isomer, unassigned; enantiomer 2) [Example 56B] are under 0.01 µM and over 0.1 µM.
As to `CC(C)(N)c1cc(O[C@H]2[C@@H]3CN(C(=O)c4cc(-c5cscn5)ns4)C[C@@H]32)nc(-c2ccc(F)cc2)c1` [Example 29, ((1R,5S,6s)-6-((4-(2-aminopropan-2-yl)-6-(4-fluorophenyl)pyridin-2-yl)oxy)-3-azabicyclo[3.1.0]hexan-3-yl)(3-(thiazol-4-yl)isothiazol-5-yl)methanone], the EC50 is under 0.01 µM in assay [1] (setting [3]) and over 0.1 µM in assay [2] (setting [4]).
On to `Cn1nc(-c2ncco2)cc1C(=O)N1C[C@@H]2C(Oc3cc(C(C)(N)CO)cc(-c4ccc(F)cc4)n3)[C@@H]2C1` (single isomer, unassigned; enantiomer 1) [Example 58A], for which the EC50 in assay [1] (setting [3]) was under 0.01 µM; in assay [2] (setting [4]) it was over 0.1 µM.
